The target of one assay is T1, Calcitonin receptor (Homo sapiens, UniProt P30988). Also: in other assays of this panel Not Active means under 50% inhibition at 10 µM.
T1 sequence (P30988 whole entry): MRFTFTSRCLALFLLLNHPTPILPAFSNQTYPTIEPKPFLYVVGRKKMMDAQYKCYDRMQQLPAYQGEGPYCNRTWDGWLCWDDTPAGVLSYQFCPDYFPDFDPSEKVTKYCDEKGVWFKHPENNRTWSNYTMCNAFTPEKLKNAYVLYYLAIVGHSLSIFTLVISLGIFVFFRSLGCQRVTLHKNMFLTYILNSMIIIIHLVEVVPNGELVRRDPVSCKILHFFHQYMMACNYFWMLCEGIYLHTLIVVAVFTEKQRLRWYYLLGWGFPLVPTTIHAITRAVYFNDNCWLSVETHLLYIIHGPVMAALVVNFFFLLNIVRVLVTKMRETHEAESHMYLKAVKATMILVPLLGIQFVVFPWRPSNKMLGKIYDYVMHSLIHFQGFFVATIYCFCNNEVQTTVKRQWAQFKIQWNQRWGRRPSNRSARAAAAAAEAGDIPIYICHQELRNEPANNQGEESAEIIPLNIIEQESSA
It is filed as cell membranes, Membrane. As to conditions: t47d.

Assay [1] in a line: DRUGMATRIX: Serotonin (5-Hydroxytryptamine) 5-HT3 radioligand binding (ligand: [3H] GR-65630). The format is cell membranes, Membrane. As to conditions: hek293; Not Active = under 50% inhibition at 10 µM.
A further assay concerns the target Vasopressin V1a receptor (Homo sapiens, UniProt P37288). The format is cell membranes, Membrane. The settings on record: hek293. Also: in other assays of this panel Not Active means under 50% inhibition at 10 µM.
In a further assay the target is Melanocortin receptor 4 (Homo sapiens, UniProt P32245). It is filed as cell membranes, Membrane. As to conditions: hek293. Also: in other assays of this panel Not Active means under 50% inhibition at 10 µM.
Sequence of Melanocortin receptor 4 (P32245 whole entry): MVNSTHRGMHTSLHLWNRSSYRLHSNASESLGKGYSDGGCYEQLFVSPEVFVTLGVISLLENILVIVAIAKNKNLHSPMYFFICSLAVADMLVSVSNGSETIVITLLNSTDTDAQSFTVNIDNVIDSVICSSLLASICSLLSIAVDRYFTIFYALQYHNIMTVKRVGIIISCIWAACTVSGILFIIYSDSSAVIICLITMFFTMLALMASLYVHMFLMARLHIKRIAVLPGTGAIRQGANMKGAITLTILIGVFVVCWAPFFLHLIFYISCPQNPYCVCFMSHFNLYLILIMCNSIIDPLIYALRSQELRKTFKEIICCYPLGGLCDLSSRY
Assay [2] addresses cGMP-specific 3',5'-cyclic phosphodiesterase (Homo sapiens, UniProt O76074). In words: DRUGMATRIX: Phosphodiesterase PDE5 enzyme inhibition (substrate: [3H]cGMP + cGMP). It is filed as tissue-based, Platelet. As to conditions: platelet; Not Active = under 50% inhibition at 10 µM.
In assay [3] the target is Tyrosine-protein kinase Lck (Homo sapiens, UniProt P06239). In words: DRUGMATRIX: Protein Tyrosine Kinase, LCK enzyme inhibition (substrate: Poly(Glu:Tyr)). The format is cell-based, Insect cells. The settings on record: insect cells; Not Active = under 50% inhibition at 10 µM.
Sequence of Tyrosine-protein kinase Lck (P06239 whole entry): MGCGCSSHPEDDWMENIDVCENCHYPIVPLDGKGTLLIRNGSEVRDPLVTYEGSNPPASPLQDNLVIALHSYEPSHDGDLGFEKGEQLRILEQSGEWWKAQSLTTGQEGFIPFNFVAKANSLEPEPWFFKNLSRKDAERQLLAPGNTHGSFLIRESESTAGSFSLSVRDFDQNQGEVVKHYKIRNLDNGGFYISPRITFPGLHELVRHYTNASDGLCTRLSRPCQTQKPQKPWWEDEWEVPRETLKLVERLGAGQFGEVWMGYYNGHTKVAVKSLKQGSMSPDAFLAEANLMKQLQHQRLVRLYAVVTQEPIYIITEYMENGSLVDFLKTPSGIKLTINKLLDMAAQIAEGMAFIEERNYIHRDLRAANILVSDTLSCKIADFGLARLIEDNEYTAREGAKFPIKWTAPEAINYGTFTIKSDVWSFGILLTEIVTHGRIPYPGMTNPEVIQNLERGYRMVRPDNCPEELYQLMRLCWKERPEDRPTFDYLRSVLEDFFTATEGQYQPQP
Assay [4] has as its target T2, 5-hydroxytryptamine receptor 1A (Rattus norvegicus, UniProt P19327). Also: in other assays of this panel Not Active means under 50% inhibition at 10 µM.
T2 sequence (P19327 whole entry): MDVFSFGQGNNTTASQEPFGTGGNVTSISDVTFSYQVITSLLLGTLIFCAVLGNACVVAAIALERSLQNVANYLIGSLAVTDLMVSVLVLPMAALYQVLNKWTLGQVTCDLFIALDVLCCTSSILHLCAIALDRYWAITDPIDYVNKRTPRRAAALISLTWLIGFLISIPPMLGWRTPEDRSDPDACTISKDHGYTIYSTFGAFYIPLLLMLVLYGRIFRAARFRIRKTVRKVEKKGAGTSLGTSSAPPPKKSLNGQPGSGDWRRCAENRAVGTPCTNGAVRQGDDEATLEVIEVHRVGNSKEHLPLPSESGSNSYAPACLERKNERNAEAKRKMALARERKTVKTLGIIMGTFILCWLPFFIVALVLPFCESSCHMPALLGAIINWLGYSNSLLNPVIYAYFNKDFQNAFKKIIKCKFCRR
It is filed as cell membranes, CHO-K1, Membrane.

A further assay has as its target Cytochrome P450 2C19 (Homo sapiens, UniProt P33261). Also: in other assays of this panel Not Active means under 50% inhibition at 10 µM.
The next assay deals with Cytochrome P450 2D6 (Homo sapiens, UniProt P10635).
Sequence of Cytochrome P450 2D6 (P10635 whole entry): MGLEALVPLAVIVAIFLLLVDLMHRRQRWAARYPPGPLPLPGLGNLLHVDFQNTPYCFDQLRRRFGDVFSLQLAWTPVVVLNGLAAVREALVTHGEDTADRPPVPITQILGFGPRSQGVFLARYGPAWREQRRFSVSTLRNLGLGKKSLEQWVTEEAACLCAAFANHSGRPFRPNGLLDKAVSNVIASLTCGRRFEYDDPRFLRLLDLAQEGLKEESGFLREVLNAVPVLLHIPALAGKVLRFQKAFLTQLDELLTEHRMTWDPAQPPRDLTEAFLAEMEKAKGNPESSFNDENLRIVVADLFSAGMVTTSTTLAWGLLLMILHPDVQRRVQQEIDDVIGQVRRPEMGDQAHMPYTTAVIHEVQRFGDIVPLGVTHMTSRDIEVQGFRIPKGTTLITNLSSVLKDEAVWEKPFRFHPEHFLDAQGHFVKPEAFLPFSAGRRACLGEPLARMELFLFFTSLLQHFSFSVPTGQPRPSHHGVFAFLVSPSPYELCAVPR

Sequence of Vasopressin V1a receptor (P37288 whole entry): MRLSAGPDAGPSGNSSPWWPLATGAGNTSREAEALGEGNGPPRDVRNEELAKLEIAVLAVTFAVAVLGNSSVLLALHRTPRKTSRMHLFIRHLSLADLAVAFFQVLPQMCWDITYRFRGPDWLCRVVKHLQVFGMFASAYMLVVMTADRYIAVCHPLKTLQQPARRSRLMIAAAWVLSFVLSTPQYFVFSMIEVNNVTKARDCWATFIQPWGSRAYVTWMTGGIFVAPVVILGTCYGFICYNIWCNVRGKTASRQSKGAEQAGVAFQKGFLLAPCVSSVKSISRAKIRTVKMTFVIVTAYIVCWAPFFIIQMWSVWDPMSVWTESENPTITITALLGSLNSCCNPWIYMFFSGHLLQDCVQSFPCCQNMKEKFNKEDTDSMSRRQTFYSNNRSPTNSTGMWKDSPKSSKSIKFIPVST
Sequence of Cytochrome P450 2C19 (P33261 whole entry): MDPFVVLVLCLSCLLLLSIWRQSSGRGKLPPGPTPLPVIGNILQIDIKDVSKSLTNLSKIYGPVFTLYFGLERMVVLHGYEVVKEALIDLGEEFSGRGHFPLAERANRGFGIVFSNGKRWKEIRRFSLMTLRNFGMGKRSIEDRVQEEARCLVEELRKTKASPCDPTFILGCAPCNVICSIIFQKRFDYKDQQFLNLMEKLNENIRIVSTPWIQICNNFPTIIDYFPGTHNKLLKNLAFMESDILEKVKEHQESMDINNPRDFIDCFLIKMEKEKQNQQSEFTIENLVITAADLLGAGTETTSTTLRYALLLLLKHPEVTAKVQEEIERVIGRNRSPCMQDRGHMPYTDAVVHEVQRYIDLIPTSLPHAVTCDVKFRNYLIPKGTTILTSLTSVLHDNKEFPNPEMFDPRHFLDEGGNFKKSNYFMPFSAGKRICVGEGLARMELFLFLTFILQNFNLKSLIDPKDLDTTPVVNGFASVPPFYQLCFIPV

Take `CNCCC=C1c2ccccc2CCc2ccccc21` [NORTRIPTYLINE]: the half-maximal inhibitory concentration (IC50) entry (at Calcitonin receptor; in assay [1]; on Vasopressin V1a receptor; on Melanocortin receptor 4; in assay [2]; in [3]) was “Not Active” in each case. Also, the half-maximal inhibitory concentration (IC50) in assay [4] (read-out: IC50) was found to be 1870 nM; at Cytochrome P450 2C19, 3000 nM; at Cytochrome P450 2D6, 1000 nM. Moreover, the Ki result is “Not Active” in [1] and 1070 nM in assay [4] (read-out: Ki).

For orientation: IC50 means the concentration needed to halve the response being measured. What is called Ki is the dissociation constant of the complex between target and ligand, obtained from inhibition or displacement.
